Experimental data: publication PMC10333884, “Large‐scale phosphomimetic screening identifies phospho‐modulated motif‐based protein interactions” (Molecular Systems Biology, 2023)
Non-standard residues stand in square brackets, D forms with d. Residues, ends and D or L forms follow the SMILES beside them. pT = C[C@@H](OP(=O)(O)O)[C@H](N)C(=O)O; pS = N[C@@H](COP(=O)(O)O)C(=O)O

Columns and labels:
Format in all cases: binding
[1] = molecular target: T1, RANBP2 RanBD4 (Homo sapiens, UniProt P49792); assay: FP displacement assay, RANBP2 RanBD4; conditions: probe FITC-C7orf25 5 nM, 50 mM sodium phosphate pH 7.4, room temperature, at least three technical replicates, read-out: KD values ± SEM
T1 construct: GST (cleaved yes); made in house; host or cells: Escherichia coli BL21-Gold(DE3)
T1 sequence (P49792 2924-3050): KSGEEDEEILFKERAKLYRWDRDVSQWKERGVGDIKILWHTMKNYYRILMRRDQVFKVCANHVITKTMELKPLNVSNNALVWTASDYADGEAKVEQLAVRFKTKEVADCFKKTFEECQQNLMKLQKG
Description: (§1) FP experiments were performed as described previously (Kliche et al, [2021]). Shortly, in order to monitor the binding event, FITC‐labelled peptides were used (excitation 495 nm, emission: 535 nm) and the FP signal was recorded in mP on a SpectraMax iD5 Multi‐Mode Microplate Reader (Molecular Devices) by measuring the emitted light in two angels. The measurements were performed at room temperature and prepared in nonbinding black half area 96‐well microplates (Corning®; 50 μl/well). For measuring direct binding, that is saturation curves, a 1:1 dilution series of protein domain (25 μl/well) was generated in 50 mM sodium phosphate buffer pH 7.4 and the measurement performed with 5 nM FITC‐labelled peptide (25 μl/well). The buffer‐corrected values were subsequently plotted with PRISM and fitted to the quadratic equation (Gianni et al, [2005]).
(§2) The 1:1 dilution series in this experiment was performed with the unlabelled peptide in 50 mM sodium phosphate buffer pH 7.4, so that each well‐contained unlabelled peptide (25 μl) at a certain concentration and pre‐formed complex (25 μl). The KD values of this indirectly monitored binding event were calculated as described previously (Nikolovska‐Coleska et al, [2004]). All measurements were at least in technical triplicates as well as biological duplicates when indicated. An amplitude shift between repeat measurements in the displacement experiments was occasionally observed due to variations in the protein preparations. If that was the case, the “active” protein concentration was back‐calculated according to the quadratic equation from the saturation curves performed in parallel. By comparing the active protein concentrations in the complex between different protein preparations, the amplitude was normalised.

[2] = molecular target: T2, PDCD6IP Alix V domain (Homo sapiens, UniProt Q8WUM4); assay: FP displacement assay, PDCD6IP Alix V domain; conditions: probe FITC-HIV1_Gag 5 nM, 50 mM sodium phosphate pH 7.4, room temperature, at least three technical replicates, read-out: KD values ± SEM
T2 construct: GST (cleaved yes); made in house; host or cells: Escherichia coli BL21-Gold(DE3)
T2 sequence (Q8WUM4 360-702): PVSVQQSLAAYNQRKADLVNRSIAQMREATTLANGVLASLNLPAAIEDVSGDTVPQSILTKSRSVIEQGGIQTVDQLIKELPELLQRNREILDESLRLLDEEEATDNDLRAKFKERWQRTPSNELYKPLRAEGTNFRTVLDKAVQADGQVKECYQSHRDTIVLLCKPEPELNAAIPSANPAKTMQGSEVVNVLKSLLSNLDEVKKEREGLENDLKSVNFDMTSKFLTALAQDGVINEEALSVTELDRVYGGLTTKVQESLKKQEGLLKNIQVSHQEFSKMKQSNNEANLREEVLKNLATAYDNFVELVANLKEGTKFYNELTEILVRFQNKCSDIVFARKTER
Description: as §1, §2

[3] = molecular target: T3, Clathrin NTD (Homo sapiens, UniProt Q00610); assay: FP displacement assay, clathrin NTD
T3 construct: GST (cleaved yes); made in house; host or cells: Escherichia coli BL21-Gold(DE3)
T3 sequence (Q00610 1-364): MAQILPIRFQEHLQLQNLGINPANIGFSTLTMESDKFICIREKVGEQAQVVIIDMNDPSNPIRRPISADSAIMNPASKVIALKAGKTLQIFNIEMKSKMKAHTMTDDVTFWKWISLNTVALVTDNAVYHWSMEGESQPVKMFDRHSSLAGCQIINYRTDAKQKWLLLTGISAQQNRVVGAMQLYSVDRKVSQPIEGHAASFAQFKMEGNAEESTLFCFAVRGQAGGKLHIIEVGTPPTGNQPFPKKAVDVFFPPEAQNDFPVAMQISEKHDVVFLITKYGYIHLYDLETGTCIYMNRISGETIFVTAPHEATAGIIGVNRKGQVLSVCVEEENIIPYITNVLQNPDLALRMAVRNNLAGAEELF
Description: as §1, §2

Row | Compound | Kd [2] [µM] | other results
1 | CC(=O)N[C@@H](CCCCN)C(=O)N[C@@H](Cc1ccc(O)cc1)C(=O)N[C@@H](CO)C(=O)N[C@@H](CC(=O)O)C(=O)N[C@@H](CC(=O)O)C(=O)N[C@H](C(=O)N1CCC[C@H]1C(=O)N[C@@H](CC(C)C)C(=O)N1CCC[C@H]1C(=O)N[C@H](C(=O)N1CCC[C@H]1C(=O)N[C@@H](CO)C(=O)N[C@@H](Cc1ccc(O)cc1)C(=O)N[C@@H](CCCCN)C(=O)N[C@@H](Cc1ccc(O)cc1)C(=O)N[C@@H](CC(N)=O)C(N)=O)[C@@H](C)OP(=O)(O)O)[C@@H](C)O [DHX38_260–275 pS] (Ac-KYSDDTPLP[pT]PSYKYN-NH2) |  | Kd [1]: 167 ± 21 µM
2 | CC(=O)N[C@@H](Cc1c[nH]cn1)C(=O)N[C@@H](CC(C)C)C(=O)N1CCC[C@H]1C(=O)N[C@@H](CC(C)C)C(=O)N[C@@H](CC(N)=O)C(=O)N[C@@H](COP(=O)(O)O)C(=O)N1CCC[C@H]1C(=O)N[C@@H](CC(C)C)C(=O)N1CCC[C@H]1C(=O)NCC(=O)N[C@@H](CO)C(=O)N[C@@H](CCC(=O)O)C(=O)N[C@@H](CC(C)C)C(=O)N[C@H](C(=O)N[C@@H](CCCCN)C(=O)N[C@@H](Cc1ccc(O)cc1)C(N)=O)[C@@H](C)O [INTS6_145–159 pS] (Ac-HLPLN[pS]PLPGSELTKY-NH2) |  | Kd [1]: 733 ± 128 µM
3 | CC[C@H](C)[C@H](NC(=O)[C@H](CCCCN)NC(=O)[C@H](CC(C)C)NC(=O)[C@@H]1CCCN1C(=O)[C@H](CO)NC(=O)[C@@H](NC(=O)[C@H](CCC(N)=O)NC(=O)[C@@H]1CCCN1C(=O)[C@H](Cc1ccc(O)cc1)NC(=O)[C@H](CC(C)C)NC(=O)[C@@H]1CCCN1C(=O)[C@H](CCCNC(=N)N)NC(=O)[C@H](CC(C)C)NC(=O)[C@@H]1CCCN1C(=O)[C@H](CO)NC(=O)[C@H](C)NC(C)=O)[C@@H](C)CC)C(N)=O [FOXK1_212–227 wt] (Ac-ASPLRPLYPQISPLKI-NH2) | 25 ± 3 | 
4 | CC[C@H](C)[C@H](NC(=O)[C@H](CCCCN)NC(=O)[C@H](CC(C)C)NC(=O)[C@@H]1CCCN1C(=O)[C@H](COP(=O)(O)O)NC(=O)[C@@H](NC(=O)[C@H](CCC(N)=O)NC(=O)[C@@H]1CCCN1C(=O)[C@H](Cc1ccc(O)cc1)NC(=O)[C@H](CC(C)C)NC(=O)[C@@H]1CCCN1C(=O)[C@H](CCCNC(=N)N)NC(=O)[C@H](CC(C)C)NC(=O)[C@@H]1CCCN1C(=O)[C@H](CO)NC(=O)[C@H](C)NC(C)=O)[C@@H](C)CC)C(N)=O [FOXK1_212–227 pS] (Ac-ASPLRPLYPQI[pS]PLKI-NH2) | 13 ± 2 | 
5 | CC(=O)N[C@H](C(=O)N[C@@H](COP(=O)(O)O)C(=O)N1CCC[C@H]1C(=O)N[C@@H](CC(C)C)C(=O)N[C@H](C(=O)N[C@@H](CO)C(=O)N[C@@H](CC(C)C)C(=O)N[C@@H](Cc1ccc(O)cc1)C(=O)N1CCC[C@H]1C(=O)N[C@@H](C)C(=O)N[C@@H](CC(C)C)C(=O)N[C@@H](CCC(=O)O)C(=O)N[C@@H](C)C(=O)N[C@@H](CCCNC(=N)N)C(=O)N[C@@H](C)C(=O)N[C@@H](CC(C)C)C(N)=O)C(C)C)[C@@H](C)O [OTUD5_507–522 pS] (Ac-T[pS]PLVSLYPALEARAL-NH2) | 116 ± 20 | 
6 | CC(=O)N[C@H](C(=O)N[C@@H](CO)C(=O)N1CCC[C@H]1C(=O)N[C@@H](CC(C)C)C(=O)N[C@H](C(=O)N[C@@H](CO)C(=O)N[C@@H](CC(C)C)C(=O)N[C@@H](Cc1ccc(O)cc1)C(=O)N1CCC[C@H]1C(=O)N[C@@H](C)C(=O)N[C@@H](CC(C)C)C(=O)N[C@@H](CCC(=O)O)C(=O)N[C@@H](C)C(=O)N[C@@H](CCCNC(=N)N)C(=O)N[C@@H](C)C(=O)N[C@@H](CC(C)C)C(N)=O)C(C)C)[C@@H](C)O [OTUD5_507–522 wt] (Ac-TSPLVSLYPALEARAL-NH2) | 68 ± 6 | 
7 | CC[C@H](C)[C@H](NC(=O)[C@H](CC(C)C)NC(=O)[C@H](CC(N)=O)NC(=O)CNC(=O)CNC(=O)[C@H](Cc1ccc(O)cc1)NC(C)=O)C(=O)N[C@H](C(=O)N[C@@H](Cc1ccccc1)C(=O)N[C@@H](COP(=O)(O)O)C(=O)N1CCC[C@H]1C(=O)N[C@@H](CC(C)C)C(=O)N[C@@H](CCC(N)=O)C(=O)N1CCC[C@H]1C(=O)NCC(=O)N[C@@H](CCC(=O)O)C(=O)N[C@@H](Cc1ccccc1)C(=O)O)[C@@H](C)O [HURP832–846 pS Cterm] (Ac-YGGNLITF[pS]PLQPGEF-OH) |  | Kd [3]: < 3 µM; IC50 ([3]; Fig 6A, clathrin NTD, FP displacement, two to three technical replicates per protein preparation, 2 independent preparations, read-out: IC50 values of displacement curves, with SEM): 11 ± 4 µM
